This passage reports inhibition and IC50 results from ChEMBL document CHEMBL1130948, “Synthesis of sialyl Lewis X mimetics using the Ugi four-component reaction” (Bioorg Med Chem Lett, 1998).

Structures are written as SMILES. Where “and” joins values, the source holds several entries; their conditions need not be identical. Identical values can stand only once. Calls of active or inactive are those of the source. No cut-off for these calls is given here.

The target of test [1] is T1, E-selectin (Homo sapiens) (UniProt P16581).
T1 sequence (whole entry): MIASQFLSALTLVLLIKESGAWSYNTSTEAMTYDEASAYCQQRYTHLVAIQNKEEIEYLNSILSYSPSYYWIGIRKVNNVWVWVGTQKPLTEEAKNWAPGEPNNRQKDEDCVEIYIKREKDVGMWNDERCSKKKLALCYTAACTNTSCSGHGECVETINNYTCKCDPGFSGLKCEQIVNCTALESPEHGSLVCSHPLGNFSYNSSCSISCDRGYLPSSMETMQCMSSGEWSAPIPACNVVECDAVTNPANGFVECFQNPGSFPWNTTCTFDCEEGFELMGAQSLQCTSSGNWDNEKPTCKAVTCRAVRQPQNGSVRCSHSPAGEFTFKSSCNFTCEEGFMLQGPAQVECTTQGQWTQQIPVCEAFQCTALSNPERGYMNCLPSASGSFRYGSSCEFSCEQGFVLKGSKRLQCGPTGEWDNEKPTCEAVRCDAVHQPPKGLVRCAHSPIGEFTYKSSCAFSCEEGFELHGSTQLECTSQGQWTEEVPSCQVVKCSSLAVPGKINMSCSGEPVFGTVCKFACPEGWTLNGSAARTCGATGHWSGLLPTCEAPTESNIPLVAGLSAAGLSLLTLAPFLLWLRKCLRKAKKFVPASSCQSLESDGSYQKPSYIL
The experiment in a line: Inhibitory activity against E-selectin was tested in a cell-free SLe-polymer/Selectin E assay, at 3 mM concentration; […].

In test [2] the target is T2, E-selectin (Homo sapiens, UniProt P16581).
T2 sequence (P16581 whole entry): T1 sequence (whole entry)
The experiment in a line: Compound was tested in a cell-free SLe-polyacrylamide glycoconjugate binding assay (assay A) in Selectin E.

In test [3] the target is T2, E-selectin. The experiment in a line: Compound was tested in a cell-free SLe-polyacrylamide glycoconjugate binding assay (assay B) in Selectin E.
In test [4] the target is T1, E-selectin (Homo sapiens). The experiment in a line: Inhibitory activity against E-selectin was tested in a cell-free SLe-polymer/Selectin E assay, at 3 mM concentration.
The target in test [5] is T3, P-selectin (Homo sapiens, UniProt P16109).
T3 sequence (P16109 whole entry): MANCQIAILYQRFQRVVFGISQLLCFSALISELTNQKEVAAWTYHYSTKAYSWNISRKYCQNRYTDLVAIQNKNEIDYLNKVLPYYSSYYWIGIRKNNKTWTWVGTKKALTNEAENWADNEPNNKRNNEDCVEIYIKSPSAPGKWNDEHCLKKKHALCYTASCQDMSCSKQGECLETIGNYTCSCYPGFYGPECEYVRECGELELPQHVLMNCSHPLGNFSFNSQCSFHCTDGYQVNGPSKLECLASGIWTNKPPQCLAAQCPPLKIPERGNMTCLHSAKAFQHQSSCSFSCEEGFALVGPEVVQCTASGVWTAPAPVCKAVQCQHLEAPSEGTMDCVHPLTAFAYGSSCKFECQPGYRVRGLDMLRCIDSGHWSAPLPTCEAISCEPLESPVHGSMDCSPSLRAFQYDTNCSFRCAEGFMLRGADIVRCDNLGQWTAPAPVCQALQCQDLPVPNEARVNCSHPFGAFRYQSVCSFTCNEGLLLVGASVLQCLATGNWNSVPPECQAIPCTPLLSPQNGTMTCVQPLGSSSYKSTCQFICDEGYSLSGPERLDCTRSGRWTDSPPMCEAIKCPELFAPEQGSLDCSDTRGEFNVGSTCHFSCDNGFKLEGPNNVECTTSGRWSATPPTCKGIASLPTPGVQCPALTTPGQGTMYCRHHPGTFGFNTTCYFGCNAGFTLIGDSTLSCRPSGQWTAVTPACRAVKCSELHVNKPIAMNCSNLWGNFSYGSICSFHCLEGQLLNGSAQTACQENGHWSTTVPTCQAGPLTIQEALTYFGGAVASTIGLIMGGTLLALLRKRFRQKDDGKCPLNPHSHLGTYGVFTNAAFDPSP
The experiment in a line: Compound was tested in a cell-free SLe-polyacrylamide glycoconjugate binding assay (assay B) in P-selectin.

Test [6] has as its target T3, P-selectin. The test is described as follows: Tested in a cell-free SLe-polyacrylamide glycoconjugate binding assay (assay A) in P-selectin; inactive.
Test [7] has as its target T1, E-selectin (Homo sapiens). The experiment in a line: (§1) Compound was tested in a cell-free SLe-polyacrylamide glycoconjugate binding assay (assay A) in Selectin E at 3 mM.
In test [8] the target is T1, E-selectin (Homo sapiens). The description is as §1. The source holds these as a separate data set.
Test [9] has as its target T4, P-selectin (Homo sapiens) (UniProt P16109).
T4 sequence (whole entry): T3 sequence (P16109 whole entry)
Particulars: 1 mM.
Description: Compound was tested in a cell-free SLe-polyacrylamide glycoconjugate binding assay (assay A) in P-selectin at 1 mM

The target of test [10] is T1, E-selectin (Homo sapiens). The test is described as follows: Compound was tested in a cell-free SLe-polymer/Selectin E assay, at 3 mM concentration.
For test [11], the target named is T1, E-selectin (Homo sapiens). The experiment in a line: Inhibitory activity against E-selectin was tested in a cell-free SLe-polymer/Selectin E assay, at 3 mM concentration; […].
For test [12], the target named is T3, P-selectin. The test is described as follows: Tested in a cell-free SLe-polyacrylamide glycoconjugate binding assay (assay A) in P-selectin.
Test [13] addresses T3, P-selectin. The test is described as follows: Compound was tested in a cell-free SLe-polyacrylamide glycoconjugate binding assay (assay B) in P-selectin; value ranges from 1.3-2.
Test [14] has as its target T3, P-selectin. The experiment in a line: Compound was tested in a cell-free SLe-polyacrylamide glycoconjugate binding assay (assay A) in P-selectin; value ranges from 1-3.
The target of test [15] is T2, E-selectin. The experiment in a line: Compound was tested in a cell-free SLe-polyacrylamide glycoconjugate binding assay (assay A) in Selectin E; inactive.

Consider `O=C(O)CNC(=O)C(CC1OC(CO)C(O)C(O)C1O)N(CC(=O)O)C(=O)CC1c2ccccc2-c2ccccc21` (stereo not drawn), for which the inhibition entry in [1] was “inactive”.

`COC(=O)CNC(=O)C(CC1OC(C)C(O)C(O)C1O)N(Cc1ccccc1)C(=O)C(NC(=O)CCC(=O)O)C(O)CO` (stereo not drawn) had an IC50 on E-selectin [2] of 840 µM.

With `COC(=O)CNC(=O)C(C)N(C(=O)CC1OC(CO)C(O)C(O)C1O)C(CCC(=O)O)C(=O)O` (stereo not drawn), the IC50 at E-selectin [2] is 360 µM and 1000 µM; on E-selectin [3], more than 10000 µM.

Turning to `CCCCCCCCCCCCCC(=O)N(CC(=O)O)C(CC1OC(CO)C(O)C(O)C1O)C(=O)NCC(=O)O` (stereo not drawn), in test [4], the inhibition was 32%.

As for `CC(C(=O)NCCc1ccccc1)N(C(=O)CC1OC(COc2ccccc2)C(O)C(O)C1O)C(CCC(=O)O)C(=O)O` (stereo not drawn), the half-inhibitory concentration (IC50) on P-selectin [5] is 311 µM and 85 µM; on E-selectin [2] it was more than 3000 µM; at E-selectin [3], more than 2500 µM.

Turning to `COC(=O)CCC(=O)N(C(CCC(=O)O)C(=O)O)C(CC1OC(CO)C(O)C(O)C1O)C(=O)NCC(=O)OC` (stereo not drawn), the IC50 entry on P-selectin [6] was “Not Active”; at P-selectin [5] it was 39 µM and 142 µM; on E-selectin [2], 3000 µM and > 3000 µM; at E-selectin [3], more than 4000 µM.

Turning to `CC(C(=O)NC(C)(C)C)N(C(=O)CC1OC(COc2ccccc2)C(O)C(O)C1O)C(CCC(=O)O)C(=O)O` (stereo not drawn), the IC50 is 87 µM and 136 µM on P-selectin [5]; more than 3000 µM at E-selectin [2]; more than 2500 µM at E-selectin [3].

Consider `O=C(O)CCC(=O)N(C(CCC(=O)O)C(=O)O)C(CC1OC(CO)C(O)C(O)C1O)C(=O)NCC(=O)O` (stereo not drawn), for which the IC50 entry on P-selectin [6] was “Not Active”; at P-selectin [5] it was 18 µM and 25 µM; at E-selectin [3], more than 4000 µM. The results for the inhibition in [7], in [8] and in test [9] were 45%, 45% and 29%, respectively.

The molecule `CC(=O)N(CC(=O)O)C(CC1OC(CO)C(O)C(O)C1O)C(=O)NCC(=O)O` (stereo not drawn) yielded an inhibition in test [10] of 28%.

`C/C=C/C=C/C(=O)N(CC(=O)O)C(CC1OC(CO)C(O)C(O)C1O)C(=O)NCC(=O)O` (stereo not drawn): in [11], the inhibition entry is “inactive”.

As for `CC1OC(CC(C(=O)NCCc2ccccc2)N(CC(=O)NC(CCC(=O)O)C(=O)O)C(=O)CCc2ccc(Oc3ccc(Oc4ccccc4)cc3)cc2)C(O)C(O)C1O` (stereo not drawn), the IC50 on P-selectin [12] is 283 µM; at P-selectin [5], 28 µM; on E-selectin [2], 530 µM; at E-selectin [3], more than 4000 µM.

As for `CCOCCOCCOCCOCCCCOCC1OC(CC(=O)N(C(C)C(=O)NCC(=O)OC)C(CCC(=O)O)C(=O)O)C(O)C(O)C1O` (stereo not drawn), the IC50 was more than 3000 µM on P-selectin [12]; 5 µM and 1 µM on P-selectin [5]; 500 µM and 300 µM on E-selectin [2]; more than 10000 µM at E-selectin [3].

Molecule `CCCCCC(=O)N(CC(=O)O)C(CC1OC(CO)C(O)C(O)C1O)C(=O)NCC(=O)O` (stereo not drawn) came in with an inhibition in test [10] of 52%.

Molecule `O=C(O)CNC(=O)C(CC1OC(CO)C(O)C(O)C1O)N(CC(=O)O)C(=O)c1ccccc1` (stereo not drawn) yielded an inhibition in test [4] of 38%.

As to `CC1OC(CC(=O)N(CC(=O)NC(CCC(=O)O)C(=O)O)C(CCc2ccc(Oc3ccc(Oc4ccccc4)cc3)cc2)C(=O)NCCc2ccccc2)C(O)C(O)C1O` (stereo not drawn), the results for the IC50 at P-selectin [5], on E-selectin [2] and on E-selectin [3] were 76 µM, 950 µM and more than 2500 µM, respectively.

On to `CC(=O)N[C@H]1[C@H]([C@H](O)[C@H](O)CO)O[C@@](O[C@H]2[C@@H](O)[C@@H](CO)O[C@@H](O[C@@H]([C@H](O[C@@H]3O[C@@H](C)[C@@H](O)[C@@H](O)[C@@H]3O)[C@H](C=O)NC(C)=O)[C@H](O)CO)[C@@H]2O)(C(=O)O)C[C@@H]1O` [SIALYL LEWIS X], for which the IC50 on P-selectin [12] is more than 3000 µM; at E-selectin [2] it was 480 µM; on E-selectin [3] it was 1090 µM; at P-selectin [13] it was 1300 µM.

As to `O=C(O)CCC(NC(=O)CC1OC(COCCCc2ccc(Oc3ccc(Oc4ccccc4)cc3)cc2)C(O)C(O)C1O)C(=O)O` (stereo not drawn), the IC50 on P-selectin [12] was 34 µM; on P-selectin [5], 4 µM; at E-selectin [2], 350 µM; on E-selectin [3], more than 10000 µM.

In test [4], `O=C(O)CNC(=O)C(CC1OC(CO)C(O)C(O)C1O)N(CC(=O)O)C(=O)Cc1cccc2ccccc12` (stereo not drawn) displayed an inhibition of 42%.

`O=C(O)CNC(=O)C(CC1OC(CO)C(O)C(O)C1O)N(CC(=O)O)C(=O)c1ccc(-c2ccccc2)cc1` (stereo not drawn): the inhibition entry in test [1] was “inactive”.

Take `COC(=O)CNC(=O)C(CCC(=O)O)N(C(=O)CC1OC(CO)C(O)C(O)C1O)C(CCC(=O)O)C(=O)O` (stereo not drawn): the IC50 result was “Not Active” on P-selectin [6], 28 µM on P-selectin [5], 3000 µM at E-selectin [2] and more than 4000 µM on E-selectin [3].

In the case of `COC(=O)CNC(=O)C(C)N(C(=O)CC1OC(COc2ccccc2)C(O)C(O)C1O)C(CCC(=O)O)C(=O)O` (stereo not drawn), the IC50 at P-selectin [5] was 41 µM and 43 µM; at E-selectin [2], 3400 µM and 2800 µM; at E-selectin [3], more than 2500 µM.

For `O=C(O)CNC(=O)C(CC1OC(CO)C(O)C(O)C1O)N(CC(=O)O)C(=O)C(F)(F)F` (stereo not drawn), in [10], the inhibition amounted to 42%.

As to `O=C(O)CCC(C(=O)O)N(C(=O)CC1OC(CO)C(O)C(O)C1O)C(CCC(=O)O)C(=O)NCC(=O)O` (stereo not drawn), the IC50 entry on P-selectin [6] is “Not Active”; at P-selectin [5] it was 15 µM; at E-selectin [2] it was 3000 µM; on E-selectin [3] it was more than 4000 µM.

On to `COC(=O)CNC(=O)C(C)N(C(=O)CC1OC(COCCCc2ccc(Oc3ccc(Oc4ccccc4)cc3)cc2)C(O)C(O)C1O)C(CCC(=O)O)C(=O)O` (stereo not drawn), for which the IC50 at P-selectin [14] was 1000 µM; at P-selectin [5] it was 127 µM and 32 µM; on E-selectin [2] it was 420 µM and 600 µM; on E-selectin [3], 3420 µM and 3620 µM.

In turn, `O=C(O)CNC(=O)C(CC1OC(CO)C(O)C(O)C1O)N(CC(=O)O)C(=O)Cc1ccc2ccccc2c1` (stereo not drawn) gave an inhibition in [4] of 51%.

Regarding `O=C(O)CNC(=O)C(CC1OC(CO)C(O)C(O)C1O)N(CC(=O)O)C(=O)c1cccc2c1Cc1ccccc1-2` (stereo not drawn), the inhibition in test [4] was found to be 48%.

Turning to `CCOCCOCCOCCOCCCCOCC1OC(CC(=O)NC(CCC(=O)O)C(=O)O)C(O)C(O)C1O` (stereo not drawn), the IC50 was more than 3000 µM at P-selectin [12], “Not Active” at E-selectin [15], 20 µM on P-selectin [5] and more than 10000 µM on E-selectin [3].

What is called inhibition is the percentage by which the read-out fell short of the control. The IC50 is the concentration at which inhibition is half-maximal. Read a low IC50 as inhibition by little substance.
